Measured values published in patent US20250243180A1, “TARGETED PROTEIN DEGRADATION” (Monte Rosa Therapeutics AG, priority 2023, published 2025).
Where two headings read alike, the source gives them in different places.

Columns and labels:
[1] = molecular target: CRBN-DDB1 (Homo sapiens (Human), UniProt Q96SW2); test: Compound binding to CRBN by HTRF assay
Method: Compound activity was monitored in a Homogenous Time-Resolved Fluorescence (HTRF) assay using 1-[5-({2-[2-(2-{[2-(2,6-dioxopiperidin-3-yl)-1,3-dioxo-2,3-dihydro-1H-isoindol-4-yl]oxy}acetamido)ethoxy]ethyl}carbamoyl)pentyl]-3,3-dimethyl-2-[(1E,3E)-5-[(2E)-1,3,3-trimethyl-5-sulfo-2,3-dihydro-1H-indol-2-ylidene]penta-1,3-dien-1-yl]-3H-indol-1-ium-5-sulfonate as a fluorescent probe. Biochemical assays were conducted in Greiner white 384 well HiBase plates (Cat. No 784075-25) in 20 μL total volume. A one pot detection solution of CRBN-DDB1 (2.5 nM), Anti-His Terbium Cryptate Gold (1×, PerkinElmer Cat. #: 61HI2TLB), and Cy5-Thalidomide (100 nM, Tenova Cat.: T52461) was prepared in 20 mM HEPES, 20 mM NaCl, 0.2 mM TCEP, 0.2 mM EDTA, and 0.005% Tween20 was dispensed to each assay plate. Compounds were stored in dry, ambient temperatures at 10 mM. An 11-point, 1:3 dilution series was prepared from 10 mM stock concentrations in Echo-compatible LDV plates. 10 nL of each compound dilution series was dispensed into assays wells using an Echo 650 (Labcyte Inc. USA). 20 nL of 10 mM Lenalidomide was transferred into the active-control wells for the assay and 20 nL of DMSO was transferred into the neutral-control wells. The assay was then allowed to incubate for 30 min at ambient temperature after transferring compound. Plate measurements were taken on a Pherastar FSX (BMG Labtech, Germany) using the HTRF Red filter (Ex. 337 nm, em1: 620 nm, em2: 665 nm) (Flashes: 50, Integration time: 60-400 us, Z-height: 10 mm, Ratio-multiplier: 10,000). The HTRF signal was then subsequently normalized to the neutral and active controls. Analysis and EC50 values were derived using KNIME analytics (KNIME Zurich) transformation and fitting within Collaborative Drug Discovery (Collaborative Drug Discovery USA). Ki was derived from the geometric mean of the EC50 values using the Cheng-Prustoff transformation.

[2] = molecular target: NEK7 (Homo sapiens (Human), UniProt Q8TDX7+Q96SW2); test: NEK7 NanoBiT degradation assay in Cal51 NEK7 NanoBiT cell line; format: cell-based; details: Cal51 NEK7 NanoBiT cells, 24 hours; for Dmax: CAL-51
Method: Cal51 NEK7 NanoBiT cell line was generated via CRISPR Knock-In of the HiBiT tag in NEK7 gene and stable infection with a lentivirus carrying LgBiT protein. The cell line was generated in house. For the experiment, cells were plated in 384-well white flat bottom plates (Corning, 3570BC) at 2500 cells per well using Multiflo (BioTek/Agilent) and in 25 μl volume in DMEM experimental medium: DMEM (DMEM, high glucose, HEPES, no phenol red (ThermoFisher Scientific, 21063029) supplemented with 10% FBS (Corning, 35-075-CV), 1% Penicillin/Streptomycin ((ThermoFisher Scientific, 15140-122), and 1% Endurazine (Nano-Glo Endurazine Live Cell Substrate (Promega, N2571)). Cells were incubated for 16 hours at 37° C., 5% CO2 before compound addition. For dose response determination, 2.5 nL of a compound at different concentrations (stock compound concentration range: 10 mM to 0.5 μM, final concentration range inside cell plate: 1 μM to 0.05 nM) were dispensed into the plate using an Echo® 650 liquid handling device (Backman Coulter/Labcyte). Cells were incubated at 37° C., 5% CO2 for 24 hours and then signal was read on a Pherastar FSX using “LUM plus” optic module with 4095 gain and measurement interval time 0.2 seconds.
Analysis was performed in Genedata Screener (Genedata, Basel, CH). Luminescence response (R) was calculated by the formula: response=100*(S−N)/(P−N) where S is the signal of the well, N and P the mean negative and positive control values respectively of the same plate. The luminescence response was then fitted in Genedata using a 4-parameter antagonist logistic fit (hill slope unconstrained, EC50>0, top/bottom unconstrained).

[3] = NEK7 degradation, read-out: NanoBiT Dmax
[4] = NEK7 degradation, read-out: NanoBiT DC50

Sequence of NEK7 (Q8TDX7 whole entry): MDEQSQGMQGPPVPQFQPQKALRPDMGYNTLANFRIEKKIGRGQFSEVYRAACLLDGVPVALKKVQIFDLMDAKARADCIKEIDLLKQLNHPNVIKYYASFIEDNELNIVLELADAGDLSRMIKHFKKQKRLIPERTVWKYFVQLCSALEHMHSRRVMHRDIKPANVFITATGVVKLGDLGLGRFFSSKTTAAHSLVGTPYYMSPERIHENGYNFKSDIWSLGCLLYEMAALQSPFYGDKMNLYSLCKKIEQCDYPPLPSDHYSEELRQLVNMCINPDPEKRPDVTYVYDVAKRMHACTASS
Sequence of NEK7 (Q96SW2 whole entry): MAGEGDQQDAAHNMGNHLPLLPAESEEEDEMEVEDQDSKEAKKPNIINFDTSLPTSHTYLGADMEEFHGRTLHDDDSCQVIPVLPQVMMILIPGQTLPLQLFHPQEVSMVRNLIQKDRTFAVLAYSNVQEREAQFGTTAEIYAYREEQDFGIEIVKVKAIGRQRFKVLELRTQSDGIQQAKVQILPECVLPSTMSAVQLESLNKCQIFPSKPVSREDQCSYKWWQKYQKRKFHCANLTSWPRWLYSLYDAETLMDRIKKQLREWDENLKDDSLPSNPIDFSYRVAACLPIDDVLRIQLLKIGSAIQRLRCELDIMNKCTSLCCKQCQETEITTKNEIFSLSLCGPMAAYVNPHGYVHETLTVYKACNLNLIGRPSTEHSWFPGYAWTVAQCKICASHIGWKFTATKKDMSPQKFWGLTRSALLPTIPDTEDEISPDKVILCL
Sequence of NEK7 (Q16531 2-1140 partner): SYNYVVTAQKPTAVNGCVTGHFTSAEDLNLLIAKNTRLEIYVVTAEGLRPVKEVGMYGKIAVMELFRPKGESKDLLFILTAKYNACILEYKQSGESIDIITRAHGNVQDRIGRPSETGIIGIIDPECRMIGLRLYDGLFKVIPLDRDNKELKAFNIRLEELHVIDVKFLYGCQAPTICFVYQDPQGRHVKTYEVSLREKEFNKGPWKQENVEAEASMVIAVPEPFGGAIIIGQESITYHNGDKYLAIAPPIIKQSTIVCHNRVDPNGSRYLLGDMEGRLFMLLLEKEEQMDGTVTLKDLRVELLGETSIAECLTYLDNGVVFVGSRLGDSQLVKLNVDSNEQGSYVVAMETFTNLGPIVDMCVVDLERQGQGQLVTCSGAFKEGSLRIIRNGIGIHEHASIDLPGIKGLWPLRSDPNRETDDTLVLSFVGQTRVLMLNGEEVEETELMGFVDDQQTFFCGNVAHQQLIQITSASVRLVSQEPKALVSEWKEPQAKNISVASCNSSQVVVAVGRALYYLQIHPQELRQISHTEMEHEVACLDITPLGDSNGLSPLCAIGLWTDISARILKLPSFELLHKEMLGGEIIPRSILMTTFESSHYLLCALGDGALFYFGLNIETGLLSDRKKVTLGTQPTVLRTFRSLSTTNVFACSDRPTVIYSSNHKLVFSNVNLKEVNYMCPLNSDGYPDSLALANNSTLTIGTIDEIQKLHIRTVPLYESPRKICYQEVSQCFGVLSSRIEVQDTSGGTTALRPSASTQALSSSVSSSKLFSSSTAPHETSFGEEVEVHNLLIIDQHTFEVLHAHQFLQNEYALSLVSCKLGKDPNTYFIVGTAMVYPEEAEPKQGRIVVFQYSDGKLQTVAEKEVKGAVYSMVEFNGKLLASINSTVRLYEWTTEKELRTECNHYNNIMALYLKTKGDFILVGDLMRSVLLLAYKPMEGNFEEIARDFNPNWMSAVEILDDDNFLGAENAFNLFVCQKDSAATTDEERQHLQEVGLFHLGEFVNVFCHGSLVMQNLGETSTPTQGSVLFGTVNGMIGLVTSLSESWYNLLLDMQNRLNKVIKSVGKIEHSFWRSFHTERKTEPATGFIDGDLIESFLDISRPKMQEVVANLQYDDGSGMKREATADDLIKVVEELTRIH
Sequence of CRBN-DDB1 (Q96SW2 whole entry): as the sequence (Q96SW2 whole entry) above
Sequence of CRBN-DDB1 (Q16531 whole entry partner): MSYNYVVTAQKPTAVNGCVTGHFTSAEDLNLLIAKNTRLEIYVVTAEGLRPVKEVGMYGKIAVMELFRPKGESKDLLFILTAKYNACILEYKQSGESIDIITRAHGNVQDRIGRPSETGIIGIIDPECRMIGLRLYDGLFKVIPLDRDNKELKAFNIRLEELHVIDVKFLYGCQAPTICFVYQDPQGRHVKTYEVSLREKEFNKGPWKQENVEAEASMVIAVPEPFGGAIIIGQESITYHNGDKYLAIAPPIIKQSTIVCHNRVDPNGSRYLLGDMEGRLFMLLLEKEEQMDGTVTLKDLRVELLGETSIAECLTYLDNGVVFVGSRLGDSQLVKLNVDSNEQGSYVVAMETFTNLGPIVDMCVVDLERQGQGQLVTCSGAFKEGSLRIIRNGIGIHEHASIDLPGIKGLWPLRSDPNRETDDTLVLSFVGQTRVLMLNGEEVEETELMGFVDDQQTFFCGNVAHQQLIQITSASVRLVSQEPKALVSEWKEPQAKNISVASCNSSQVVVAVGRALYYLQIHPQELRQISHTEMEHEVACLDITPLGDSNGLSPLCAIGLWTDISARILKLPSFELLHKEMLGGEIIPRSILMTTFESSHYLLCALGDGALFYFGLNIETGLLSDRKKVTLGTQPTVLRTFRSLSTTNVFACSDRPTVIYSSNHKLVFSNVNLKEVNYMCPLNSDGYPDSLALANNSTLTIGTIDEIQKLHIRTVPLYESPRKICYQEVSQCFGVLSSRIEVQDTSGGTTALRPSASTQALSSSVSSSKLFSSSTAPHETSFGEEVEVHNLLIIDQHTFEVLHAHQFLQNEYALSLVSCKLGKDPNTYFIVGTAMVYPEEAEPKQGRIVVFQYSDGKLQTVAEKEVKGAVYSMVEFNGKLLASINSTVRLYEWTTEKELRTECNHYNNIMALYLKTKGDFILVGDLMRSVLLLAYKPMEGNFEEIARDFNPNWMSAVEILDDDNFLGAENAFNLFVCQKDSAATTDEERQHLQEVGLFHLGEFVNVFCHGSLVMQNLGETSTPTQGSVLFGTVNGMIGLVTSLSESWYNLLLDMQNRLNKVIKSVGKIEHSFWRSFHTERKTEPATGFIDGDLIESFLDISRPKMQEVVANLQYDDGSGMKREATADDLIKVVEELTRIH

| SMILES | EC50 [1] [nM] | EC50 ([1]; HTRF class, Cereblon binding) [nM] | Dmax ([2]; read-out: NEK7 NanoBiT Dmax) [%] | Dmax [2, 3] [%] | DC50 ([2]; read-out: NEK7 NanoBiT DC50) [nM] | DC50 [2, 4] [nM] |
| --- | --- | --- | --- | --- | --- | --- |
| CC(C)(C(=O)NCc1cc(Cl)c(C2CCC(=O)NC2=O)c(Cl)c1)c1cc2ocnc2cn1 (stereo not drawn) [Compound 146] | 180 | 100 to 1000 | 91 | > 75 | 5 | ≤ 100 |
| CC(C)(C(=O)NCc1cc(Cl)c(C2CCC(=O)NC2=O)c(Cl)c1)c1cc2ncccc2cn1 (stereo not drawn) [Compound 2, N-(3,5-dichloro-4-(2,6-dioxopiperidin-3-yl)benzyl)-2-methyl-2-(1,6-naphthyridin-7-yl)propanamide] | 110 | 100 to 1000 | 94 | > 75 | 3 | ≤ 100 |
| COc1ccc(C(C)(C)C(=O)NCc2cc(F)c(C3CCC(=O)NC3=O)c(Cl)c2)cn1 (stereo not drawn) [Compound 250] | 70 | ≤ 100 | 96 | > 75 | 2 | ≤ 100 |
| CC(C)(C(=O)NCc1cc(Cl)c(C2CCC(=O)NC2=O)c(Cl)c1)c1cnc(F)nc1 (stereo not drawn) [Compound 5, N-(3,5-dichloro-4-(2,6-dioxopiperidin-3-yl)benzyl)-2-(2-fluoropyrimidin-5-yl)-2-methylpropanamide] | 120 | 100 to 1000 | 63 | 50 to 75 | 133 | 100 to 1000 |
| Cc1coc(C(C)(C)C(=O)NCc2cc(Cl)c(C3CCC(=O)NC3=O)c(Cl)c2)n1 (stereo not drawn) [Compound 197] | 120 | 100 to 1000 | 87 | > 75 | 13 | ≤ 100 |
| CC(C)(C(=O)NCc1cc(Cl)c(C2CCC(=O)NC2=O)c(Cl)c1)c1ccnc2ccccc12 (stereo not drawn) [Compound 63] | 140 | 100 to 1000 | 62 | 50 to 75 | 91 | ≤ 100 |
| [2H]C([2H])([2H])C(C(=O)NCc1cc(Cl)c(C2CCC(=O)NC2=O)c(Cl)c1)(c1ncc(C)cn1)C([2H])([2H])[2H] (stereo not drawn) [Compound 237] | 150 | 100 to 1000 | 87 | > 75 | 11 | ≤ 100 |
| CC(C)(C(=O)NCc1cc(Cl)c(C2CCC(=O)NC2=O)c(Cl)c1)c1ccn2ccnc2c1 (stereo not drawn) [Compound 55] | 100 | 100 to 1000 | 97 | > 75 | 1 | ≤ 100 |
| Cn1ccc(C(C)(C)C(=O)NCc2cc(Cl)c(C3CCC(=O)NC3=O)c(Cl)c2)cc1=O (stereo not drawn) [Compound 75] | 300 | 100 to 1000 | 92 | > 75 | 14 | ≤ 100 |
| CC(C)(C(=O)NCc1cc(Cl)c(C2CCC(=O)NC2=O)c(Cl)c1)c1ncc(OC(F)(F)F)cn1 (stereo not drawn) [Compound 229, N-(3,5-dichloro-4-(2,6-dioxopiperidin-3-yl)benzyl)-2-methyl-2-(5-(trifluoromethoxy)-pyrimidin-2-yl)propanamide] | 120 | 100 to 1000 | 88 | > 75 | 12 | ≤ 100 |
| CC(C)(C(=O)NCc1cc(Cl)c(C2CCC(=O)NC2=O)c(Cl)c1)c1cnc(C#N)nc1 (stereo not drawn) [Compound 13] | 200 | 100 to 1000 | 73 | 50 to 75 | 56 | ≤ 100 |
| CC(F)(F)c1cnc(C(C)(C)C(=O)NCc2cc(Cl)c(C3CCC(=O)NC3=O)c(Cl)c2)nc1 (stereo not drawn) [Compound 187] | 100 | 100 to 1000 | 93 | > 75 | 4 | ≤ 100 |
| COc1cnc(C(C)(C)C(=O)NCc2cc(F)c(C3CCC(=O)NC3=O)c(Cl)c2)cn1 (stereo not drawn) [Compound 251] | 80 | ≤ 100 | 92 | > 75 | 4 | ≤ 100 |
| CC(C)(C(=O)NCc1cc(Cl)c(C2CCC(=O)NC2=O)c(Cl)c1)c1cnc(Cl)cn1 (stereo not drawn) [Compound 248] | 70 | ≤ 100 | 95 | > 75 | 2 | ≤ 100 |
| Cc1cnc(C(C)(C)C(=O)NCc2cc(F)c(C3CCC(=O)NC3=O)c(Cl)c2)nc1 (stereo not drawn) [Compound 253] | 140 | 100 to 1000 | 45 | ≤ 50 | 778 | 100 to 1000 |
| CC(C)(C(=O)NCc1ccc(C2CCC(=O)NC2=O)c(Br)c1)c1ccc(F)cc1 (stereo not drawn) [Compound 64] | 490 | 100 to 1000 | 86 | > 75 | 43 | ≤ 100 |
| CC(C)(C(=O)NCc1cc(Cl)c([C@H]2CCC(=O)NC2=O)c(Cl)c1)c1ncc(C#N)cn1 (single isomer, unassigned) [Compound 153] | ≥ 10000 | > 1000 | 90 | > 75 | 53 | ≤ 100 |
| Cc1nnc(C(C)(C)C(=O)NCc2cc(Cl)c([C@@H]3CCC(=O)NC3=O)c(Cl)c2)o1 (single isomer, unassigned) [Compound 224] | 90 | ≤ 100 | 77 | > 75 | 32 | ≤ 100 |
| Cn1cc(C(C)(C)C(=O)NCc2cc(Cl)c(C3CCC(=O)NC3=O)c(Cl)c2)ccc1=O (stereo not drawn) [Compound 67] | 220 | 100 to 1000 | 74 | 50 to 75 | 95 | ≤ 100 |
| CC(C)(C(=O)NCc1cc(Cl)c(C2CCC(=O)NC2=O)c(Cl)c1)c1cccnc1 (stereo not drawn) [Compound 99] | 80 | ≤ 100 | 87 | > 75 | 8 | ≤ 100 |
| CC(C)(C(=O)NCc1cc(Cl)c(C2CCC(=O)NC2=O)c(Cl)c1)c1ccno1 (stereo not drawn) [Compound 120, N-(3,5-dichloro-4-(2,6-dioxopiperidin-3-yl)benzyl)-2-(isoxazol-5-yl)-2-methylpropanamide] | 100 | ≤ 100 | 68 | 50 to 75 | 61 | ≤ 100 |
| CC(C)(C(=O)NCc1cc(Cl)c(C2CCC(=O)NC2=O)c(Cl)c1)c1ccc(C(N)=O)cc1F (stereo not drawn) [Compound 51] | 70 | ≤ 100 | 96 | > 75 | 1 | ≤ 100 |
| CC(C)(C(=O)NCc1cc(Cl)c(C2CCC(=O)NC2=O)c(Cl)c1)c1nc(C(F)F)no1 (stereo not drawn) [Compound 219] | 80 | ≤ 100 | 72 | 50 to 75 | 47 | ≤ 100 |
| Cc1cnc(C(C)(C)C(=O)NCc2cc(Cl)c([C@H]3CCC(=O)NC3=O)c(Cl)c2)nc1 (single isomer, unassigned) [Compound 155] | ≥ 10000 | > 1000 | 75 | 50 to 75 | 186 | 100 to 1000 |
